Assay results from ChEMBL document CHEMBL5308541, “MAIP: An Open-Source Tool to Enrich High-Throughput Screening Output and Identify Novel, Druglike Molecules with Antimalarial Activity” (ACS Med Chem Lett, 2023).

Experiments:
Plasmodium falciparum [1] = test: Hit confirmation in dose-response curve in Dd2 pLDH assay, at 72h; format: functional, organism-based, Erythrocyte; parameters: timepoint 72 hour; settings: Plasmodium falciparum, Dd2, Erythrocyte, 72 h
Plasmodium falciparum [2] = test: Hit confirmation in dose-response curve in NF54 nanoGlo assay, at 72h; format: functional, organism-based, Erythrocyte; parameters: timepoint 72 hour; settings: Plasmodium falciparum, NF54, Erythrocyte, 72 h
Plasmodium falciparum [3] = test: Hit confirmation in dose-response curve in NF54 nanoGlo assay, at 12h; format: functional, organism-based, Erythrocyte; parameters: timepoint 12 hour; settings: Plasmodium falciparum, NF54, Erythrocyte, 12 h
Plasmodium falciparum [4] = test: Hit confirmation in dose-response curve in NF54 pLDH assay, at 72h; format: functional, organism-based, Erythrocyte; parameters: timepoint 72 hour; settings: Plasmodium falciparum, NF54, Erythrocyte, 72 h
[5] = Hit confirmation in dose-response curve in HepG2 cytotoxicity assay, at 72h; format: toxicity, cell-based, Homo sapiens; parameters: timepoint 72 hour; settings: human, HepG2 cells

Row | Compound | IC50 (Plasmodium falciparum [1]) [µM] | IC50 (Plasmodium falciparum [2]) [µM] | IC50 (Plasmodium falciparum [3]) [µM] | IC50 (Plasmodium falciparum [4]) [µM] | IC50 at 72 h [5] [µM]
1 | CN(C)Cc1cccc(CCNCc2csc(-c3ccc(C(F)(F)F)cc3)n2)c1 | 2.69 | 2.63 | 4.79 | 3.47 | 7.76
2 | Cc1ccc2nc(NC[C@H]3CCN(C4CC4)C3)cc(C)c2c1 | 2.45 | 2.04 | 3.16 | 3.02 | > 10
3 | CCn1cc(-c2cccc(C(=O)N[C@@H](C)CN3CCc4ccccc4C3)c2)cn1 | 9.77 | 8.32 | > 10 | 9.12 | > 10
4 | Cc1nc(N2CCN(C)CC2)cc(N2CCN(S(=O)(=O)c3ccccc3C(F)(F)F)CC2)n1 | 4.37 | 1.23 | 0.977 | 6.61 | > 10
5 | CC(C)(C)c1ccc(CNC[C@H](O)c2ccc(F)cc2F)cc1 | 1.95 | 0.891 | 1.45 | 2.82 | > 10
6 | Cc1ccc2[nH]cc(-c3cc(N4CCOCC4)nc(N)n3)c2c1 | 7.08 | 5.62 | 9.77 | 7.59 | > 10
7 | O=C1C2CCCCC2C(c2c(-c3ccccc3)[nH]c3ccccc23)N1Cc1ccccc1 (stereo not given) | > 10 | > 10 | > 10 | > 10 | > 10
8 | COc1ccc(OC2CCN(C3CCCC3)CC2)c(C(=O)NCc2cccc3[nH]ccc23)c1 | 6.17 | 4.47 | > 10 | 5.37 | > 10
9 | COCCNc1nc(N[C@@H](C)c2ccccc2)c2ccccc2n1 | 2.75 | 3.02 | 8.71 | 5.37 | > 10
10 | CCc1oc2ccccc2c1CNC[C@H](O)c1ccc(Cl)cc1 | 0.955 | 0.513 | 0.776 | 0.977 | > 10
11 | CNc1nc(C)c(-c2ccnc(Nc3cccc(S(C)(=O)=O)c3)n2)s1 | 6.46 | 2.82 | > 10 | > 10 | 0.78
12 | Cc1ccc(CNc2ncnc(N)c2Cl)c(N2CCCC2)n1 | > 10 | 2.45 | 1.07 | > 10 | > 10
13 | COc1ccc(-c2cc(C(=O)Nc3ccc(N4CCN5CCCC5C4)cc3)c3c(C)noc3n2)cc1 (stereo not given) | 5.75 | 4.27 | 6.46 | 7.59 | > 10
14 | CN([C@@H](c1ccccc1)c1ccccc1Br)S(=O)(=O)c1c[nH]c2ncccc12 | 7.41 | 7.08 | > 10 | 9.77 | > 10
15 | CCN(Cc1[nH]c2ccc(Cl)cc2c1C)CC1CCN(C2CCN(C)CC2)CC1 | 1.62 | 1.51 | 3.09 | 1.74 | > 10
16 | N#Cc1cccc(Cl)c1N1CCC(N2CCCC2)CC1 | 3.8 | 3.02 | > 10 | 3.89 | > 10
17 | COCCN1CCC[C@@]2(CCN(c3ccnc4cc(Cl)ccc34)C2)C1 | 0.135 | 0.162 | 0.234 | 0.166 | > 10
18 | Cc1noc(-c2ccnc(NC[C@@H](c3ccccn3)N3CCOCC3)c2)n1 | 3.02 | 1.58 | > 10 | 3.98 | > 10
19 | Nc1ccnc2ccc(-c3ccc(C(=O)NCC4CCOCC4)cc3)cc12 | 2.69 | 1.23 | > 10 | 3.31 | > 10

Row | Compound | IC50 (Plasmodium falciparum [1]) [µM] | IC50 (Plasmodium falciparum [2]) [µM] | IC50 (Plasmodium falciparum [3]) [µM] | IC50 (Plasmodium falciparum [4]) [µM] | IC50 at 72 h [5] [µM]
20 | C[C@H]1CCCN(CCNC(=O)c2ccc(-c3ccc4c(=O)[nH]ccc4c3)cc2)C1 | 0.575 | 1.48 | > 10 | 0.398 | > 10
21 | Cc1ccc(-c2nnc(Nc3ccccc3)c3ccccc23)cc1CN1C(=O)c2ccccc2C1=O | 9.33 | 3.8 | > 10 | > 10 | > 10
22 | COCCN1CC[C@H](CN(C)c2ccnc3cc(Cl)ccc23)C1 | 1.45 | 1.38 | 1.82 | 1.51 | > 10
23 | CC(C)c1ccc(-c2noc(CCN3CCN(CCCN(C)C)CC3)n2)cc1 | 8.51 | 7.94 | > 10 | > 10 | > 10
24 | Cc1nc2ccc(CNC3CCN(c4ccc(F)c(F)c4)CC3)cc2[nH]1 | 3.55 | 4.57 | > 10 | 3.72 | > 10
25 | Cc1cc(NC[C@H](O)COc2ccc(F)cc2)nc2ccccc12 | 4.07 | 2.19 | 4.17 | 6.92 | > 10
26 | Cc1ccc2nc(CCCNC3CCN(c4cc(C)nc(N)n4)CC3)oc2c1 | 3.47 | 3.89 | 8.91 | 3.31 | > 10
27 | CN(C)C1(CNc2nc(C(F)(F)F)nc3cc4c(cc23)OCO4)CCCCCC1 | 3.47 | 2.95 | > 10 | 1.26 | > 10
28 | Cc1cc(N2CCC(NCCCN3CCCc4ccccc43)CC2)nc(N)n1 | 3.72 | 3.09 | > 10 | 3.63 | > 10
29 | Cc1ccn2cc(-c3ccc(N4CCC(NCc5cccnc5)CC4)cc3)nc2c1 | 5.37 | 3.72 | > 10 | 5.25 | > 10
30 | Nc1ccc(Nc2ccc(F)cc2)c2ccncc12 | 4.37 | 4.37 | 7.41 | 7.41 | > 10
31 | Cc1cc(N2CCC(NC3CCNC(c4ccccc4)C3)CC2)nc(C)n1 (stereo not given) | 6.17 | 4.37 | 10.2 | 9.12 | > 10
32 | Nc1cc(N2CCC(c3nc4cc(F)ccc4[nH]3)CC2)nc(N2CCOCC2)n1 | > 10 | 8.71 | > 10 | 8.32 | > 10
33 | CCOc1ccc2nc(CN(CC)CC3CCN(C4CCN(C)CC4)CC3)ccc2c1 | 2 | 1.95 | 3.55 | 2.45 | > 10
34 | Cc1cc(O)c(Cl)cc1-c1ccc2nccc(N)c2c1 | 0.302 | 0.324 | > 10 | 0.38 | > 10
35 | CN(c1ccccc1)c1ccc(CN2CCN([C@H]3CCNC3)CC2)cc1 | 6.46 | 4.17 | > 10 | 9.33 | > 10
36 | CCNc1cc(C)nc(NCCNC(=O)Nc2cc(F)cc(F)c2)n1 | 3.47 | 2.4 | > 10 | 3.47 | > 10
37 | COc1ccc2cc(-c3cc(N)ccn3)[nH]c2c1 | 4.17 | 2.88 | 6.03 | 4.57 | > 10
38 | O=C(NCCNc1ccnc2ccncc12)c1ccc(C(F)(F)F)cc1 | 5.37 | 3.24 | > 10 | 5.75 | > 10
